Measured values taken from patent US20100261719A1, “CHEMICAL COMPOUNDS” (priority 2007, published 2010).

The compounds below were run against Escherichia coli DNA gyrase A/B tetramer (Escherichia coli, UniProt P0AES4+P0AES6) (assay: DNA gyrase supercoiling activity fluorescence polarisation assay). Settings: not given.
Chain of Escherichia coli DNA gyrase A/B tetramer (P0AES4 whole entry, one chain of several): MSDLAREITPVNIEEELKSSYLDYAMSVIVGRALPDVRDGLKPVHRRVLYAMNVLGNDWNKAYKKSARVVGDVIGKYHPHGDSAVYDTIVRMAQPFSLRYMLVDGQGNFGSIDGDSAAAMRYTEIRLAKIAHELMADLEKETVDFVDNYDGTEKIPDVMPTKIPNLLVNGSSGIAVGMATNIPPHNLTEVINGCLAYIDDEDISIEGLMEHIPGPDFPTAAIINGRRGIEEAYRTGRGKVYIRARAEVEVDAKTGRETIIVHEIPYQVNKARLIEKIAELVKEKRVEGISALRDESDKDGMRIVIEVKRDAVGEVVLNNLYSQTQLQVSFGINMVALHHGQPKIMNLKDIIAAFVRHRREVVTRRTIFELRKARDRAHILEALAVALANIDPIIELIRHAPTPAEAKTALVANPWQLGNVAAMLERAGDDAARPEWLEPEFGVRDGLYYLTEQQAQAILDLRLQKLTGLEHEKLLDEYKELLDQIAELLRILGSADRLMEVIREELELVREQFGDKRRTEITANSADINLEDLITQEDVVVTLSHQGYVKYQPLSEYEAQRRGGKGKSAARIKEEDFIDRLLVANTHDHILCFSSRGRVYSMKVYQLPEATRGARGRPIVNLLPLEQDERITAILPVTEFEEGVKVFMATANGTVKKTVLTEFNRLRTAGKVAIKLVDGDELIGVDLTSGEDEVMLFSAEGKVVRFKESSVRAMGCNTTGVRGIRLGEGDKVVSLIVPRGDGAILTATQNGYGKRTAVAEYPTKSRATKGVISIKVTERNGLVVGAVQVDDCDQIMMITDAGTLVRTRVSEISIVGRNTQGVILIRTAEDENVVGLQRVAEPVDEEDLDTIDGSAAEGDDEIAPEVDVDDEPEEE
Assay type: biochemical
Method: In a black, 384-well polystyrene assay plate, 30 microliters/well of 5 nM Escherichia coli DNA gyrase A/B tetramer and 130 micrograms/ml of topologically relaxed plasmid containing the triplex-forming sequence […] in an assay buffer consisting of 35 mM Tris-HCl (pH 7.5), 24 mM KCl, 4 mM MgCl2, 2 mM dithiothreitol, 1.8 mM spermidine, 5% (v/v) glycerol, 200 nM bovine serum albumin, 0.8% dimethylsulfoxide, and 0.3 mM ATP may be incubated at ambient temperature for (typically 30 minutes) in the absence or presence of 5-10 different concentrations of test compound. The supercoiling reactions may be quenched by the addition of 10 microliters/well of 40 nM oligodeoxynucleotide probe in 3× triplex-forming buffer consisting of 150 mM NaCl, and 150 mM sodium acetate at pH 3.5. The oligodeoxynucleotide probe may be 5′-BODIPY-FL-labeled TTCTTCTTC. After 60 minutes, the fluorescence anisotropy of the BODIPY-FL may be measured in a Tecan Ultra plate reader, using 485 nm excitation and 535 nm emission filters equipped with polarizers. The IC50 may be determined by nonliner regression using two control reactions. The first contains no test compound but 0.8% DMSO (100% activity) while the second control reaction contains 5 uM Ciprofloxacin and 0.8% DMSO (0% activity).
When tested in an in-vitro assay based on the DNA gyrase supercoiling activity fluorescence polarisation assay described above, the E. coli DNA gyrase supercoiling IC50 assay inhibitory activity of the following Examples was measured at the indicated IC50.
`C[C@@H]1CN2c3c(cc(C(=O)NC4CCNCC4)c(F)c3F)CC3(C(=O)NC(=O)NC3=O)[C@H]2[C@H](C)O1` (relative stereo) [Example 71, (2R,4S,4aS)-rel-9,10-Difluoro-2,4-dimethyl-2′,4′,6′-trioxo-N-(piperidin-4-yl)-1,1′,2,3′,4,4′,4a,6′-octahydro-2′H,6H-spiro[1,4-oxazino[4,3-a]quinoline-5 ,5′-pyrimidine]-8-carboxamide] was tested, and the IC50 was 5970 nM. In the case of `C[C@@H]1CN2c3cc(F)c(C#Cc4cnccn4)cc3CC3(C(=O)NC(=O)NC3=O)[C@H]2[C@H](C)O1` (relative stereo) [Example 31, (2R,4S,4aS)-rel-9-Fluoro-2,4-dimethyl-8-(pyrazin-2-ylethynyl)-1,2,4,4a-tetrahydro-2′H,6H-spiro[1,4-oxazino[4,3-a]quinoline-5,5′-pyrimidine]-2′,4′,6′(1′H,3′H)-trione], the IC50 is reported as 980 nM. In the case of `C[C@H]1CN2c3c(cc(C#Cc4cccs4)c(F)c3F)CC3(C(=O)NC(=O)NC3=O)[C@@H]2[C@@H](C)O1` (relative stereo) [Example 10, (2S,4R,4aR)-rel-9,10-Difluoro-2,4-dimethyl-8-(thiophen-2-ylethynyl)-1,2,4,4a-tetrahydro-2′H,6H-spiro[1,4-oxazino[4,3-a]quinoline-5,5′-pyrimidine]-2′,4′,6′(1′H,3′H)-trione], the IC50 is reported as 1450 nM. Work on `C[C@@H]1CN2c3ccc(C#Cc4ccncc4)cc3CC3(C(=O)NC(=O)NC3=O)[C@H]2[C@H](C)O1` (relative stereo) [Example 3, (2R,4S,4aS)-rel-2,4-Dimethyl-8-(pyridin-4-ylethynyl)-1,2,4,4a-tetrahydro-2′H,6H-spiro[1,4-oxazino[4,3-a]quinoline-5,5′-pyrimidine]-2′,4′,6′(1′H,3′H)-trione] yielded an IC50 of 2480 nM. Work on `CNC(=O)Nc1ccc2c(c1)CC1(C(=O)NC(=O)NC1=O)[C@H]1[C@H](C)O[C@H](C)CN21` (relative stereo) [Example 78, 1-[(2R,4S,4aS)-rel-2,4-Dimethyl-2′,4′,6′-trioxo-1,1′,2,3′,4,4′,4a,6′-octahydro-2′H,6H-spiro[1,4-oxazino[4,3-a]quinoline-5,5′-pyrimidin]-8-yl]-3-methylurea] yielded an IC50 of 8650 nM. `C[C@@H]1CN2c3c(F)cc(C#Cc4cccnc4)cc3CC3(C(=O)NC(=O)NC3=O)[C@H]2[C@H](C)O1` (relative stereo) [Example 44, (2R,4S,4aS)-rel-10-Fluoro-2,4-dimethyl-8-(pyridin-3-ylethynyl)-1,2,4,4a-tetrahydro-2′H,6H-spiro[1,4-oxazino[4,3-a]quinoline-5,5′-pyrimidine]-2′,4′,6′(1′H,3′H)-trione] was tested, and the IC50 was 220 nM. With `C/C(=N\N1CC(=O)NC1=O)c1cc2c(c(F)c1F)N1C[C@@H](C)O[C@@H](C)[C@@H]1C1(C2)C(=O)NC(=O)NC1=O` (relative stereo) [Example 52, (2R,4S,4aS)-rel-8-[(1E)-N-(2,4-Dioxoimidazolidin-1-yl)ethanimidoyl]-9,10-difluoro-2,4-dimethyl-1,2,4,4a-tetrahydro-2′H,6H-spiro[1,4-oxazino[4,3-a]quinoline-5,5′-pyrimidine]-2′,4′,6′(1′H,3′H)-trione] the IC50 was 12800 nM. `C[C@H]1CN2c3c(cc(C#Cc4cncs4)c(F)c3F)CC3(C(=O)NC(=O)NC3=O)[C@@H]2[C@@H](C)O1` (relative stereo) [Example 9, (2S,4R,4aR)-rel-9,10-Difluoro-2,4-dimethyl-8-(1,3-thiazol-5-ylethynyl)-1,2,4,4a-tetrahydro-2′H,6H-spiro[1,4-oxazino[4,3-a]quinoline-5,5′-pyrimidine]-2′,4′,6′(1′H,3′H)-trione] was tested, and the IC50 was 700 nM. For `C[C@@H]1CN2c3c(cc(C(=O)NC4CCOC4)c(F)c3F)CC3(C(=O)NC(=O)NC3=O)[C@H]2[C@H](C)O1` (relative stereo) [Example 64, (2R,4S,4aS)-rel-9,10-Difluoro-2,4-dimethyl-2′,4′,6′-trioxo-N-(tetrahydrofuran-3-yl)-1,1′,2,3′,4,4′,4a,6′-octahydro-2′H,6H-spiro[1,4-oxazino[4,3-a]quinoline-5,5′-pyrimidine]-8-carboxamide], the IC50 was 5050 nM. `C[C@@H]1CN2c3c(cc(C(=O)NC4CCOCC4)c(F)c3F)CC3(C(=O)NC(=O)NC3=O)[C@H]2[C@H](C)O1` (relative stereo) [Example 66, (2R,4S,4aS)-rel-9,10-Difluoro-2,4-dimethyl-2′,4′,6′-trioxo-N-(tetrahydro-2H-pyran-4-yl)-1,1′,2,3′,4,4′,4a,6′-octahydro-2′H,6H-spiro[1,4-oxazino[4,3-a]quinoline-5,5′-pyrimidine]-8-carboxamide] was tested, and the IC50 was 5860 nM. With `C[C@@H]1CN2c3ccc(NC(=O)Nc4ccccc4)cc3CC3(C(=O)NC(=O)NC3=O)[C@H]2[C@H](C)O1` (relative stereo) [Example 73, 1-[(2R,4S,4aS)-rel-2,4-Dimethyl-2′,4′,6′-trioxo-1,1′,2,3′,4,4′,4a,6′-octahydro-2′H,6H-spiro[1,4-oxazino[4,3-a]quinoline-5,5′-pyrimidin]-8-yl]-3-phenylurea] the IC50 was 5020 nM. Compound `C[C@H]1CN2c3c(cc(C#Cc4nccs4)c(F)c3F)CC3(C(=O)NC(=O)NC3=O)[C@@H]2[C@@H](C)O1` (relative stereo) [Example 8, (2S,4R,4aR)-rel-9,10-Difluoro-2,4-dimethyl-8-(1,3-thiazol-2-ylethynyl)-1,2,4,4a-tetrahydro-2′H,6H-spiro[1,4-oxazino[4,3-a]quinoline-5,5′-pyrimidine]-2′,4′,6′(1′H,3′H)-trione] has an IC50 of 1290 nM. For `C[C@@H]1CN2c3ccc(C#Cc4ccccn4)cc3CC3(C(=O)NC(=O)NC3=O)C2[C@H](C)O1` (relative stereo) [Example 2, (2R,4S)-rel-2,4-Dimethyl-8-(pyridin-2-ylethynyl)-1,2,4,4a-tetrahydro-2′H,6H-spiro[1,4-oxazino[4,3-a]quinoline-5,5′-pyrimidine]-2′,4′,6′(1′H,3′H)-trione], the IC50 was 2090 nM. `CC(=O)N/N=C/c1cc2c(c(F)c1F)N1C[C@@H](C)O[C@@H](C)[C@@H]1C1(C2)C(=O)NC(=O)NC1=O` (relative stereo) [Example 23, N′-{(E)-[(2R,4S,4aS)-rel-9,10-Difluoro-2,4-dimethyl-2′,4′,6′-trioxo-1,1′,2,3′,4,4′,4a,6′-octahydro-2′H,6H-spiro[1,4-oxazino[4,3-a]quinoline-5,5′-pyrimidin]-8-yl]methylidene}acetohydrazide] was tested, and the IC50 was 1030 nM. Work on `C[C@@H]1CN2c3ccc(NC(=O)N4CCCCC4)cc3CC3(C(=O)NC(=O)NC3=O)[C@H]2[C@H](C)O1` (relative stereo) [Example 74, N-[(2R,4S,4aS)-rel-2,4-Dimethyl-2′,4′,6′-trioxo-1,1′,2,3′,4,4′,4a,6′-octahydro-2′H,6H-spiro[1,4-oxazino[4,3-a]quinoline-5,5′-pyrimidin]-8-yl]piperidine-1-carboxamide] yielded an IC50 of 3510 nM. Compound `C[C@H]1CN2c3c(cc(C#C[Si](C)(C)C)c(F)c3F)CC3(C(=O)NC(=O)NC3=O)[C@@H]2[C@@H](C)O1` (relative stereo) [Example 6, (2S,4R,4aR)-rel-9,10-Difluoro-2,4-dimethyl-8-[(trimethylsilyl)ethynyl]-1,2,4,4a-tetrahydro2′H,6H-spiro[1,4-oxazino[4,3-a]quinoline-5,5′-pyrimidine]-2′,4′,6′(1′H,3′H)-trione] has an IC50 of 3270 nM.

Same assay, conditions: 5 nM enzyme, 0.3 mM ATP, relaxed plasmid, fluorescence anisotropy readout; read-out: E. coli DNA gyrase supercoiling IC50
In the case of “(2R,4S,4aS)-rel-10-Fluoro-2,4-dimethyl-8-[(1-methyl-1H-imidazol-2-yl)ethynyl]-1,2,4,4a-tetrahydro-2′H,6H-spiro[1,4-oxazino[4,3-a]quinoline-5,5′-pyrimidine]-2′,4′,6(1′H,3′H)-trione [Example 42]”, the IC50 is reported as 640 nM. `C[C@@H]1CN2c3c(F)cc(C#Cc4cncs4)cc3CC3(C(=O)NC(=O)NC3=O)[C@H]2[C@H](C)O1` (relative stereo) [Example 39, (2R,4S,4aS)-rel-10-Fluoro-2,4-dimethyl-8-(1,3-thiazol-5-ylethynyl)-1,2,4,4a-tetrahydro-2′H,6′-spiro[1,4-oxazino[4,3-a]quinoline-5,5′-pyrimidine]-2′,4′,6′(1′H,3′H)-trione] showed an IC50 of 870 nM. With `Cc1nnc(C#Cc2cc(F)c3c(c2)C(=O)C2(CNC(=O)NC2=O)[C@H]2[C@H](C)O[C@H](C)CN32)s1` (relative stereo) [Example 37, (2R,4S,4aS)-rel-10-Fluoro-2,4-dimethyl-8-[(5-methyl-1,3,4-thiadiazol-2-yl)ethynyl]-1,2,4,4a-tetrahydro-2′H,6H-spiro[1,4-oxazino[4,3-a]quinoline-5,5′-pyrimidine]-2′,4′,6(1′H,3′H)-trione] the IC50 was 940 nM. `C[C@@H]1CN2c3cc(F)c(C#Cc4nccn4C)cc3C(=O)C3(CNC(=O)NC3=O)[C@H]2[C@H](C)O1` (relative stereo) [Example 30, (2R,4S,4aS)-rel-9-Fluoro-2,4-dimethyl-8-[(1-methyl-1H-imidazol-2-yl)ethynyl]-1,2,4,4a-tetrahydro-2′H,6H-spiro[1,4-oxazino[4,3-a]quinoline-5,5′-pyrimidine]-2′,4′,6(1′H,3′H)-trione] showed an IC50 of 1150 nM.
